According to ChEMBL document CHEMBL4359923, “One-step Heck Reaction Generates Nonimmunosuppressive FK506 Analogs for Pharmacological BMP Activation” (ACS Med Chem Lett, 2019):
The source made the active and inactive calls. The rule behind the calls is not given here.

What was measured:
[1] = biological target: T1, Peptidyl-prolyl cis-trans isomerase FKBP1A (Homo sapiens, UniProt P62942); assay: Inhibition of FKBP12-mediated calcineurin activation in PMA/ionomycin stimulated human Jurkat cells transfected with NFAT-Luc assessed as reduction in NFAT reporter activity at 1 uM pretreated for 30 mins prior to PMA/ionomycin activation measured after 6 hrs by luciferase reporter assay; assay type: cell-based
[2] = biological target: T1, Peptidyl-prolyl cis-trans isomerase FKBP1A; assay: Activation of FKBP12-mediated BMP signaling pathway in human Jurkat cells transfected with BRE-Luc at 1 nM to 1 uM measured after 18 hrs by luciferase reporter assay; assay type: cell-based
HUVEC [3] = assay: Cytotoxicity against human HUVEC cells assessed as inhibition of cell growth at 10 uM measured after 72 hrs by resazurin dye based assay
HUVEC [4] = assay: Cytotoxicity against human HUVEC cells assessed as inhibition of cell growth at 1 to 10 uM measured after 72 hrs by resazurin dye based assay
[5] = biological target: T1, Peptidyl-prolyl cis-trans isomerase FKBP1A; assay: Induction of FKBP12-mediated SMAD1/5 phosphorylation in human Jurkat cells measured after 2 hrs by Western blot analysis; assay type: cell-based
[6] = biological target: T1, Peptidyl-prolyl cis-trans isomerase FKBP1A; assay: Inhibition of FKBP12-mediated calcineurin activation in PMA/ionomycin stimulated human Jurkat cells transfected with NFAT-Luc assessed as NFAT reporter activity up to 10 uM pretreated for 30 mins prior to PMA/ionomycin activation measured after 6 hrs by luciferase reporter assay; assay type: cell-based

T1 sequence (P62942 whole entry): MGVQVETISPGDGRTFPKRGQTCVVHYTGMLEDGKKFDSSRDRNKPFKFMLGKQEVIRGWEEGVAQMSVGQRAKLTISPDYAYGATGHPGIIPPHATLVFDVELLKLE

| Structure (SMILES) | inhibition (INH) [1] | Activity [2] | Activity [5] | inhibition (INH) [6] | Activity (HUVEC [3]) | Activity (HUVEC [4]) |
| --- | --- | --- | --- | --- | --- | --- |
| CO[C@H]1C[C@@H](C)C/C(C)=C/[C@@H](C/C=C/c2ccnc3cc(F)ccc23)C(=O)C[C@H](O)[C@@H](C)[C@@H](/C(C)=C/[C@@H]2CC[C@@H](O)[C@H](OC)C2)OC(=O)[C@@H]2CCCCN2C(=O)C(=O)[C@]2(O)O[C@H]1[C@@H](OC)C[C@H]2C | Active | Active | – | – | Toxic | – |
| CO[C@H]1C[C@@H](C)C/C(C)=C/[C@@H](C/C=C/c2ccncc2F)C(=O)C[C@H](O)[C@@H](C)[C@@H](/C(C)=C/[C@@H]2CC[C@@H](O)[C@H](OC)C2)OC(=O)[C@@H]2CCCCN2C(=O)C(=O)[C@]2(O)O[C@H]1[C@@H](OC)C[C@H]2C | Active | Active | – | – | – | Toxic |
| CO[C@H]1C[C@@H](C)C/C(C)=C/[C@@H](C/C=C/c2ccccc2N)C(=O)C[C@H](O)[C@@H](C)[C@@H](/C(C)=C/[C@@H]2CC[C@@H](O)[C@H](OC)C2)OC(=O)[C@@H]2CCCCN2C(=O)C(=O)[C@]2(O)O[C@H]1[C@@H](OC)C[C@H]2C | Active | Active | – | – | – | Toxic |
| CNc1ccc(/C=C/C[C@@H]2/C=C(\C)C[C@H](C)C[C@H](OC)[C@H]3O[C@@](O)(C(=O)C(=O)N4CCCC[C@H]4C(=O)O[C@H](/C(C)=C/[C@@H]4CC[C@@H](O)[C@H](OC)C4)[C@H](C)[C@@H](O)CC2=O)[C@H](C)C[C@@H]3OC)cc1 | Active | Active | – | – | – | Toxic |
| C=CC[C@@H]1/C=C(\C)C[C@H](C)C[C@H](OC)[C@H]2O[C@@](O)(C(=O)C(=O)N3CCCC[C@H]3C(=O)O[C@H](/C(C)=C/[C@@H]3CC[C@@H](O)[C@H](OC)C3)[C@H](C)[C@@H](O)CC1=O)[C@H](C)C[C@@H]2OC [TACROLIMUS ANHYDROUS] | Active | Active | Dose-dependent effect | – | – | Toxic |
| CO[C@H]1C[C@@H](C)C/C(C)=C/[C@@H](C/C=C/c2ccnc3ccccc23)C(=O)C[C@H](O)[C@@H](C)[C@@H](/C(C)=C/[C@@H]2CC[C@@H](O)[C@H](OC)C2)OC(=O)[C@@H]2CCCCN2C(=O)C(=O)[C@]2(O)O[C@H]1[C@@H](OC)C[C@H]2C | Active | Active | – | – | Toxic | – |
| CO[C@H]1C[C@@H](C)C/C(C)=C/[C@@H](C/C=C/c2ccnc3c(F)c(F)ccc23)C(=O)C[C@H](O)[C@@H](C)[C@@H](/C(C)=C/[C@@H]2CC[C@@H](O)[C@H](OC)C2)OC(=O)[C@@H]2CCCCN2C(=O)C(=O)[C@]2(O)O[C@H]1[C@@H](OC)C[C@H]2C | Active | Active | – | – | Toxic | – |

The next lines start with results.

| inhibition (INH) [1] | Activity [2] | Activity [5] | inhibition (INH) [6] | Structure (SMILES) | Activity (HUVEC [3]) | Activity (HUVEC [4]) |
| --- | --- | --- | --- | --- | --- | --- |
| Active | Active | – | – | CO[C@H]1C[C@@H](C)C/C(C)=C/[C@@H](C/C=C/c2cccc(N)c2)C(=O)C[C@H](O)[C@@H](C)[C@@H](/C(C)=C/[C@@H]2CC[C@@H](O)[C@H](OC)C2)OC(=O)[C@@H]2CCCCN2C(=O)C(=O)[C@]2(O)O[C@H]1[C@@H](OC)C[C@H]2C | – | Toxic |
| – | Active | Dose-dependent effect | Not Active | CO[C@H]1C[C@@H](C)C/C(C)=C/[C@@H](C/C=C/c2ccncc2N)C(=O)C[C@H](O)[C@@H](C)[C@@H](/C(C)=C/[C@@H]2CC[C@@H](O)[C@H](OC)C2)OC(=O)[C@@H]2CCCCN2C(=O)C(=O)[C@]2(O)O[C@H]1[C@@H](OC)C[C@H]2C | – | Toxic |
| Active | Active | – | – | CO[C@H]1C[C@@H](C)C/C(C)=C/[C@@H](C/C=C/c2ccc(N)cc2)C(=O)C[C@H](O)[C@@H](C)[C@@H](/C(C)=C/[C@@H]2CC[C@@H](O)[C@H](OC)C2)OC(=O)[C@@H]2CCCCN2C(=O)C(=O)[C@]2(O)O[C@H]1[C@@H](OC)C[C@H]2C | – | Toxic |
| – | Active | Dose-dependent effect | Not Active | CO[C@H]1C[C@@H](C)C/C(C)=C/[C@@H](C/C=C/c2ccnc(N)c2)C(=O)C[C@H](O)[C@@H](C)[C@@H](/C(C)=C/[C@@H]2CC[C@@H](O)[C@H](OC)C2)OC(=O)[C@@H]2CCCCN2C(=O)C(=O)[C@]2(O)O[C@H]1[C@@H](OC)C[C@H]2C | – | Toxic |
| – | Active | Dose-dependent effect | Not Active | CO[C@H]1C[C@@H](C)C/C(C)=C/[C@@H](C/C=C/c2ccncc2)C(=O)C[C@H](O)[C@@H](C)[C@@H](/C(C)=C/[C@@H]2CC[C@@H](O)[C@H](OC)C2)OC(=O)[C@@H]2CCCCN2C(=O)C(=O)[C@]2(O)O[C@H]1[C@@H](OC)C[C@H]2C | – | Toxic |
